Data as given in patent publication EP4745135A1 (Gluetacs Therapeutics (Shanghai) Co., Ltd., priority 2023, dated 2025).

Experiments:
[1] = target: T1, CK1α (Homo sapiens, UniProt P48729+Q96SW2); test: Western blot, degradation of substrate protein in hPBMCs; format: cell-based
T1 construct: effects of the compounds of the present disclosure on the expression of target proteins in cells; endogenous in cells; host or cells: human PBMCs (Milecell Biotechnologies)

[2] = target: T2, IKZF1 (Homo sapiens, UniProt Q13422+Q96SW2); test: as above; format: cell-based
T2 construct: effects of the compounds of the present disclosure on the expression of target proteins in cells; endogenous in cells; host or cells: human PBMCs (Milecell Biotechnologies)
T2 sequence (Q13422 whole entry): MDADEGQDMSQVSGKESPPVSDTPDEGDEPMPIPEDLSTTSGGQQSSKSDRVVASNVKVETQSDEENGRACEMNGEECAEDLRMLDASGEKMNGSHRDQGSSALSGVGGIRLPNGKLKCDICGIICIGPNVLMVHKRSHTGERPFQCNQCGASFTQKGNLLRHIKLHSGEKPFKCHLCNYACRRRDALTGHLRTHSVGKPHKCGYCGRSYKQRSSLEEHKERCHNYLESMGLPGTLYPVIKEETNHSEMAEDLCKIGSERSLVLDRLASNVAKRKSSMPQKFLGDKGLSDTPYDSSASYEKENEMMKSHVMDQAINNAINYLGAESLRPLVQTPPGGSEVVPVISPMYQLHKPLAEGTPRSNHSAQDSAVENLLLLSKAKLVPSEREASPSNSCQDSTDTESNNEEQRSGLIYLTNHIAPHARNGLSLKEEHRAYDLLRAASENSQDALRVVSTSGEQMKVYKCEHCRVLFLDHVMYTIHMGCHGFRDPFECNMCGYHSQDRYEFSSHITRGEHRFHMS
T2 sequence (Q96SW2 whole entry): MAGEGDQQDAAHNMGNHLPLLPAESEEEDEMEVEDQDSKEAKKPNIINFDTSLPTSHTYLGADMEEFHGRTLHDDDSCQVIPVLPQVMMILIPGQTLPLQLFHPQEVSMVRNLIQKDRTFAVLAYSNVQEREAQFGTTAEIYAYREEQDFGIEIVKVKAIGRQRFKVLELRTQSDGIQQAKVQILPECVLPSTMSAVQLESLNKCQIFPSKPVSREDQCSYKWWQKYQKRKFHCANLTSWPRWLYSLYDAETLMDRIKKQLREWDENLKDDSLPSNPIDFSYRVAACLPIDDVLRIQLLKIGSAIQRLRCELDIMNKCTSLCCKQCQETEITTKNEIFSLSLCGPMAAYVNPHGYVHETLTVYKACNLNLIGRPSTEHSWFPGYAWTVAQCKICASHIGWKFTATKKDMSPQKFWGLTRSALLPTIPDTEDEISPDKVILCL
T2 sequence (Q16531 whole entry partner): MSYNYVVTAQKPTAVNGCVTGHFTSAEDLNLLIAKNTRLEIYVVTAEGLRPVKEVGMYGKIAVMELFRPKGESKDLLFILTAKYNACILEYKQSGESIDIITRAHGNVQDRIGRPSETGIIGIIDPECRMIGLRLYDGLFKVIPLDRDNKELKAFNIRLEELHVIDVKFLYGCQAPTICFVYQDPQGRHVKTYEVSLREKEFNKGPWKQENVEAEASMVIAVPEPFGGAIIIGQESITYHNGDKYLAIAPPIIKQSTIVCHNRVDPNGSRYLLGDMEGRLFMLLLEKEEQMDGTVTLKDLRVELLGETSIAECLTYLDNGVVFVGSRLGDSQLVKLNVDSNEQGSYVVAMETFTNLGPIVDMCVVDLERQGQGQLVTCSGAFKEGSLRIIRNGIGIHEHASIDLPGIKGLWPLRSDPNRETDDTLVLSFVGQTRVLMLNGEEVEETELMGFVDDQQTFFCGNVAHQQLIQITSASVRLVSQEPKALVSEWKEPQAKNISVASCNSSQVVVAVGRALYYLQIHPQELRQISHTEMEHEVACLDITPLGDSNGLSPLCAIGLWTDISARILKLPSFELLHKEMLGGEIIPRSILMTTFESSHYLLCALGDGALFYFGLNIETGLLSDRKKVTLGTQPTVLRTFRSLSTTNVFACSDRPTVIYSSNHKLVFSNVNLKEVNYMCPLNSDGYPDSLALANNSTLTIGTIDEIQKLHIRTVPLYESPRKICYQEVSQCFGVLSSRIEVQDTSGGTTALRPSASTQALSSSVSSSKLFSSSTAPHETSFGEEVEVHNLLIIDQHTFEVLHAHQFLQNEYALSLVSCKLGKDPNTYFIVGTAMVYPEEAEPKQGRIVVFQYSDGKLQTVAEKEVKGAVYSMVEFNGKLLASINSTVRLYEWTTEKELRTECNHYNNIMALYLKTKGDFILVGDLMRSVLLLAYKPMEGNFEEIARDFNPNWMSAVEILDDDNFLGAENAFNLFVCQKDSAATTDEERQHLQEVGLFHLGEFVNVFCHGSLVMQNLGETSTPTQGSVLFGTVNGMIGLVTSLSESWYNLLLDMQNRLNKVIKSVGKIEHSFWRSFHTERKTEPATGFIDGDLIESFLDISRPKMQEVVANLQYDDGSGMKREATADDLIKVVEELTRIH

[3] = target: T3, IKZF2 (Homo sapiens, UniProt Q96SW2+Q9UKS7); test: as above; format: cell-based
T3 construct: effects of the compounds of the present disclosure on the expression of target proteins in cells; endogenous in cells; host or cells: human PBMCs (Milecell Biotechnologies)
T3 sequence (Q9UKS7 whole entry): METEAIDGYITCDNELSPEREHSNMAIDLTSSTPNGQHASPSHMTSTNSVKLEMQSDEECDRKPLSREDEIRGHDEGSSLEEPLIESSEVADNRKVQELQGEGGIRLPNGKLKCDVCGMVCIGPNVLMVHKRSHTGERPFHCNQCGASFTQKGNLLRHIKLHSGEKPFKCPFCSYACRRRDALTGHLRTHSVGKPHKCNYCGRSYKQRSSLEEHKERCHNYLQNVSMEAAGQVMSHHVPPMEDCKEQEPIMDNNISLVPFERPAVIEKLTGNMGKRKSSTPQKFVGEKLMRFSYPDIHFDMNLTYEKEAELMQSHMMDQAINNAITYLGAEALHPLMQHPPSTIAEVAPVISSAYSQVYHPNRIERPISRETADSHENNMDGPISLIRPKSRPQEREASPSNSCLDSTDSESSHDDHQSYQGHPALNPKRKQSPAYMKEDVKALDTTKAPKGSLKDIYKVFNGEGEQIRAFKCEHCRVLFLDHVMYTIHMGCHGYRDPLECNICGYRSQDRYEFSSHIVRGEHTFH
T3 sequence (Q96SW2 whole entry): as the sequence (Q96SW2 whole entry) above
T3 sequence (Q16531 whole entry partner): as the sequence (Q16531 whole entry partner) above

[4] = target: T4, IKZF3 (Homo sapiens, UniProt Q96SW2+Q9UKT9); test: as above; format: cell-based
T4 construct: effects of the compounds of the present disclosure on the expression of target proteins in cells; endogenous in cells; host or cells: human PBMCs (Milecell Biotechnologies)
T4 sequence (Q9UKT9 whole entry): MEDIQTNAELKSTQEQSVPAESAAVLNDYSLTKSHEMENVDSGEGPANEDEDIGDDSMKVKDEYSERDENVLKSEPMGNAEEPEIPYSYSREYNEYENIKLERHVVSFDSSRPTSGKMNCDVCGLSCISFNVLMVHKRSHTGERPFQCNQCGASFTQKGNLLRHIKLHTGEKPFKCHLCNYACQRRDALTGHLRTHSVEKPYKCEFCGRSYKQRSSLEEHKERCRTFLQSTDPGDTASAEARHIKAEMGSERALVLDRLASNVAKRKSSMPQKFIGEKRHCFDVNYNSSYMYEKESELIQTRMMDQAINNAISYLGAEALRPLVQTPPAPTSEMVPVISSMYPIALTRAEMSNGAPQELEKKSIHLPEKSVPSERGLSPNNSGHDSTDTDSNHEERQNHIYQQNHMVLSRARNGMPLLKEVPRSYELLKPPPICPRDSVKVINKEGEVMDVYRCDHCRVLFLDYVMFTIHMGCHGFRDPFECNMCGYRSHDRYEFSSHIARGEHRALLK
T4 sequence (Q96SW2 whole entry): as the sequence (Q96SW2 whole entry) above
T4 sequence (Q16531 whole entry partner): as the sequence (Q16531 whole entry partner) above

[5] = target: T5, WEE1 (Homo sapiens, UniProt P30291+Q96SW2); test: as above; format: cell-based
T5 construct: effects of the compounds of the present disclosure on the expression of target proteins in cells; endogenous in cells; host or cells: human PBMCs (Milecell Biotechnologies)
T5 sequence (P30291 whole entry): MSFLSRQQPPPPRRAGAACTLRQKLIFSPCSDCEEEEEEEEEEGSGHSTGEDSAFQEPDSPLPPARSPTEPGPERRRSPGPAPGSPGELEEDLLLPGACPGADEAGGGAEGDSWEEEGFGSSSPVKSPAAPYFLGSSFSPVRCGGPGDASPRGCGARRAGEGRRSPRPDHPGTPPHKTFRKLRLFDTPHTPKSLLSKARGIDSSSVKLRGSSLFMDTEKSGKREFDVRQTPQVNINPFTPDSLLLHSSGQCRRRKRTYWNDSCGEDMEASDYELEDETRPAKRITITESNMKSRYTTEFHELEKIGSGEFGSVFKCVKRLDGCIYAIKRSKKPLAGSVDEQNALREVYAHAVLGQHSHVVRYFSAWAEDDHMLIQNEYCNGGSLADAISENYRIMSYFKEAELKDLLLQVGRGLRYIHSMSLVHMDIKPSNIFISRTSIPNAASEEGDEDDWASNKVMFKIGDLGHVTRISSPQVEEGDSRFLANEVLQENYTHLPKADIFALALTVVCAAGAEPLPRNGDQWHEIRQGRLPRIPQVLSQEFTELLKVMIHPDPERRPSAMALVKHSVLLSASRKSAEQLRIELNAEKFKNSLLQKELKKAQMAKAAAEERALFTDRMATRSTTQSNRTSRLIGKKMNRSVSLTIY
T5 sequence (Q96SW2 whole entry): as the sequence (Q96SW2 whole entry) above
T5 sequence (Q16531 whole entry partner): as the sequence (Q16531 whole entry partner) above

[6] = tested on: GSPT1; test: as above; format: cell-based, Human
[7] = target: T6, human Cereblon WT GST-tagged protein (Homo sapiens, UniProt Q96SW2); test: CRBN-binding affinity, HTRF (CEREBLON BINDING kit); details: for IC50: CRBN binding, HTRF, 3 hours at room temperature, read-out: HTRF IC50; for inhibition at 0.5 µM: read-out: Inhibition Rate at 0.5 µM (%); for inhibition at 2 µM: read-out: Inhibition Rate at 2 µM (%)
T6 construct: purchased CISBIO 64BDCRBNPEH
T6 sequence (Q96SW2 whole entry): as the sequence (Q96SW2 whole entry) above

[8] = tested on: Human multiple myeloma cell (MM.1S); test: Tumor cell proliferation inhibition (CellTiter-Meiluncell luminescent cell viability assay); details: Homo sapiens, MM1.S, 96 h; for IC50: read-out: Inhibitory activity (IC50, nM) on tumor cell proliferation, MM.1S; for inhibition at 0.01 µM: read-out: Inhibition Rate at 10 nM (%); for inhibition at 0.5 µM: read-out: Inhibition Rate at 500 nM (%)
[9] = tested on: Human T lymphocytic leukemia cell line: Jurkat; test: as above; details: 96 h; for IC50: read-out: Inhibitory activity (IC50, nM) on tumor cell proliferation, Jurkat
Procedure: (§1) The tumor cells used herein were cultured in a cell culture medium listed in table 2 at 37°C in an incubator with 5% CO2. Prior to experimentation, all cell lines used were correctly identified by STR profiling, and tested negative for mycoplasma contamination using a mycoplasma detection kit through routine screenings.
(§2) The IC50 values of the compounds of the present disclosure (including the compounds in Table 1 and Examples) were determined using the CellTiter-Meiluncell Luminescent Cell Viability Assay Kit from Dalian Meilun Biotech Co., Ltd. The detailed procedure is as follows: Tumor cells were seeded in 96-well cell culture plates at the densities specified in Table 3. On the following day, the test compounds of the present disclosure were subjected to serial dilution. The dilution can be performed according to one of the following two methods: • (1) The first dilution method: The test compounds of the present disclosure (including the compounds in Table 1 and Examples) were subjected to 5-fold serial dilutions starting from a highest concentration of 2000 µM, resulting in a total of 9 concentrations from high to low (2000, 400, 80, 16, 3.2, 0.64, 0.128, 0.0256, 0.00512 µM). Subsequently, 0.5 µL of the test compound dilution was transferred into the 96-well plate containing the cells, with each well containing 100 µL of cell culture medium. […] Into the 96-well plate, the diluted test compounds and corresponding detection reagents were added, resulting in final test compound concentrations of 500 nM and 10 nM, respectively. The experimental procedure is described below using the diluted 2 µM test compound as an example.
(§3) 0.5 µL of the aforementioned diluted compound of the present disclosure (including the compounds in Table 1 and Examples) was added to the seeded cells in 100 µL of medium, yielding a final test compound concentration of 10 nM. After the cells were treated with the compounds of the present disclosure for a specified period, the cell viability assay reagent was added to the culture medium according to the kit's instructions to determine cell viability. […] All controls were treated using the same procedure as the compounds of the present disclosure. The growth inhibition curves for the compounds of the present disclosure were plotted using Prism GraphPad software, and the IC50 values were calculated therefrom.

[10] = tested on: Human non-small cell lung cancer cell line: NCI-H1975; test: as above; details: NCI-H1975, 96 h, read-out: Inhibitory activity (IC50, nM) on tumor cell proliferation, H1975
Procedure: as §1, §2, §3

[11] = tested on: Human breast cancer cell (MCF-7); test: as above; details: MCF7, 96 h; for inhibition at 0.01 µM: read-out: Inhibition Rate at 10 nM (%); for inhibition at 0.5 µM: read-out: Inhibition Rate at 500 nM (%)
Procedure: as §1, §2, §3

[12] = tested on: Human monocytic leukemia cell line: THP-1; test: as above; details: THP-1, 96 h; for inhibition at 0.01 µM: read-out: Inhibition Rate at 10 nM (%); for inhibition at 0.5 µM: read-out: Inhibition Rate at 500 nM (%)
Procedure: as §1, §2, §3

[13] = tested on: Human colon cancer cell line: SW620; test: as above; details: SW-620, 96 h; for inhibition at 0.01 µM: read-out: Inhibition Rate at 10 nM (%); for inhibition at 0.5 µM: read-out: Inhibition Rate at 500 nM (%)
Procedure: as §1, §2, §3

[14] = tested on: Human malignant melanoma cell line: A375; test: as above; details: A-375, 96 h; for inhibition at 0.01 µM: read-out: Inhibition Rate at 10 nM (%); for inhibition at 0.5 µM: read-out: Inhibition Rate at 500 nM (%)
Procedure: as §1, §2, §3

[15] = tested on: Human multiple myeloma peripheral blood B lymphocyte cell (RPMI-8226); test: as above; details: RPMI-8226, 96 h; for inhibition at 0.5 µM: read-out: Inhibition Rate at 500 nM (%)
Procedure: as §1, §2, §3

[16] = tested on: Human mantle cell lymphoma cell line: JEKO-1; test: as above; details: JeKo-1, 96 h, read-out: Inhibitory activity (IC50, nM) on tumor cell proliferation, JEKO-1
Procedure: as §1, §2, §3

[17] = tested on: Human acute T lymphocytic leukemia cell (Molt4); test: as above; details: MOLT-4, 96 h
Procedure: as §1, §2, §3

[18] = tested on: Human myeloid monocytic leukemia cell (MV-4-11); test: as above; details: MV4-11, 96 h
[19] = tested on: Human T cell acute lymphoblastic leukemia cell (CCRF-CEM); test: as above; details: 96 h
Procedure: as §1, §2, §3

[20] = tested on: Human acute myeloid leukemia cell line: Kasumi-1; test: as above; details: Kasumi 1, 96 h
Procedure: as §1, §2, §3

[21] = Western blot, 24 hours of compound treatment, compounds tested at 50 nM and 500 nM (concentration for the table not stated)
[22] = 24 hours treatment, compounds at 50 nM and 500 nM (concentration behind the class not stated)
[23] = read-out: Inhibition Rate at 10 nM (%)
[24] = read-out: Inhibition Rate at 500 nM (%)

T1 sequence (P48729 whole entry): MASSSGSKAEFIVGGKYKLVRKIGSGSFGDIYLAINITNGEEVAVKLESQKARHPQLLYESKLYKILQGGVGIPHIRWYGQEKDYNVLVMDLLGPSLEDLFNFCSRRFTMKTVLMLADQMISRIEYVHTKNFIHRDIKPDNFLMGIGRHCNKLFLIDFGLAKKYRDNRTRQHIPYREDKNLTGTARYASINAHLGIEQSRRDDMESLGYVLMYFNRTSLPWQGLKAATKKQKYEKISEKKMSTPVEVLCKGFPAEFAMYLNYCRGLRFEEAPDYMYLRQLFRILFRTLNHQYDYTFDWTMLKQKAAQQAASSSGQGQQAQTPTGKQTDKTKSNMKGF
T1 sequence (Q96SW2 whole entry): as the sequence (Q96SW2 whole entry) above
T1 sequence (Q16531 whole entry partner): as the sequence (Q16531 whole entry partner) above

For `Cc1ccc(Sc2ccccc2N2CCN(Cc3ccc4c(c3)C(=S)N(C3CCC(=O)NC3=O)C4)CC2)c(C)c1` (stereo not drawn) [GT-05038, 3-(6-((4-(2-((2,4-dimethylphenyl)thio)phenyl)piperazin-1-yl)methyl)-1-thioxoisoindolin-2-yl)piperidine-2,6-dione], the “CK1α substrate protein remaining %” value [1, 21] was “B (80%< substrate protein remaining %≤ 100%)”, the “IKZF 1 substrate protein remaining %” value [2, 21] was “A (0% ≤ substrate protein remaining % ≤ 80%)” and the “IKZF2 substrate protein remaining %” value [3, 21] was “A (0% ≤ substrate protein remaining % ≤ 80%)”. The “IKZF3 substrate protein remaining %” value [4, 21] was “A (0% ≤ substrate protein remaining % ≤ 80%)”, the “Wee1 substrate protein remaining %” value [5, 21] was “B (80%< substrate protein remaining %≤ 100%)” and the “GSPT1 substrate protein remaining %” value [6, 21] was “A (0% ≤ substrate protein remaining % ≤ 80%)”. The IC50 [7] was 500 to 1000 nM, the IC50 [8] was 100 to 500 nM and the IC50 [9] was 500 to 1000 nM. It also gave an IC50 [10] of 500 to 1000 nM.

In the case of `CC(C)c1cc2c(C3=CCN(Cc4ccc5c(c4)CN(C4CCC(=O)NC4=O)C5=S)CC3)ncnc2s1` (stereo not drawn) [GT-09317, 3-(5-((4-(6-isopropylthieno[2,3-d]pyrimidin-4-yl)-3,6-dihydropyridin-1(2H)-yl)methyl)-1-thioxoisoindolin-2-yl)piperidine-2,6-dione], the “CK1α substrate protein remaining %” value [1, 22] is reported as “B (80%< substrate protein remaining %≤ 100%)”, the “IKZF 1 substrate protein remaining %” value [2, 22] is reported as “A (0% ≤ substrate protein remaining % ≤ 80%)” and the “IKZF2 substrate protein remaining %” value [3, 22] is reported as “A (0% ≤ substrate protein remaining % ≤ 80%)”. The “IKZF3 substrate protein remaining %” value [4, 22] was “A (0% ≤ substrate protein remaining % ≤ 80%)”, the “Wee1 substrate protein remaining %” value [5, 22] was “A (0% ≤ substrate protein remaining % ≤ 80%)” and the “GSPT1 substrate protein remaining %” value [6, 22] was “A (0% ≤ substrate protein remaining % ≤ 80%)”. The inhibition at 0.5 µM [7] was 40 to 53%, the inhibition at 2 µM [7] was 80 to 100% and the inhibition at 0.01 µM [8] was 10 to 20%. It also gave an inhibition at 0.5 µM [8] of 60 to 70%, an inhibition at 0.01 µM [11] of 5 to 10% and an inhibition at 0.5 µM [11] of 80 to 100%. The inhibition at 0.01 µM [12] was 80 to 100%, the inhibition at 0.5 µM [12] was 100 to 110% and the inhibition at 0.01 µM [13] was 80 to 100%. The inhibition at 0.5 µM [13] was 100 to 110%, the inhibition at 0.01 µM [14] was 50 to 60% and the inhibition at 0.5 µM [14] was 80 to 100%.

`O=C1CCC(N2Cc3cc(CN4CC=C(c5ncnc6sc(-c7ccccc7)cc56)CC4)ccc3C2=S)C(=O)N1` (stereo not drawn) [GT-09319, 3-(5-((4-(6-phenylthieno[2,3-d]pyrimidin-4-yl)-3,6-dihydropyridin-1(2H)-yl)methyl)-1-thioxoisoindolin-2-yl)piperidine-2,6-dione] was tested, and the “CK1α substrate protein remaining %” value [1, 22] was “B (80%< substrate protein remaining %≤ 100%)”, the “IKZF 1 substrate protein remaining %” value [2, 22] was “A (0% ≤ substrate protein remaining % ≤ 80%)” and the “IKZF2 substrate protein remaining %” value [3, 22] was “A (0% ≤ substrate protein remaining % ≤ 80%)”. For the same molecule, the “IKZF3 substrate protein remaining %” value [4, 22] was “A (0% ≤ substrate protein remaining % ≤ 80%)”, the “Wee1 substrate protein remaining %” value [5, 22] was “A (0% ≤ substrate protein remaining % ≤ 80%)” and the “GSPT1 substrate protein remaining %” value [6, 22] was “A (0% ≤ substrate protein remaining % ≤ 80%)”. It also gave an inhibition at 0.5 µM [7] of 60 to 80%, an inhibition at 2 µM [7] of 80 to 100% and an inhibition at 0.01 µM [15, 23] of 5 to 10%. The inhibition at 0.5 µM [15] was 50 to 60%, the inhibition at 0.01 µM [11] was 20 to 30% and the inhibition at 0.5 µM [11] was 70 to 80%. The inhibition at 0.01 µM [12] was 80 to 100%, the inhibition at 0.5 µM [12] was 80 to 100% and the inhibition at 0.01 µM [13] was 70 to 80%. For the same molecule, the inhibition at 0.5 µM [13] was 80 to 100%, the inhibition at 0.01 µM [14] was 40 to 50% and the inhibition at 0.5 µM [14] was 80 to 100%.

With `Cc1sc2ncnc(C3=CCN(Cc4ccc5c(c4)CN(C4CCC(=O)NC4=O)C5=S)CC3)c2c1C` (stereo not drawn) [GT-09318, 3-(5-((4-(5,6-dimethylthieno[2,3-d]pyrimidin-4-yl)-3,6-dihydropyridin-1(2H)-yl)methyl)-1-thioxoisoindolin-2-yl)piperidine-2,6-dione] the “CK1α substrate protein remaining %” value [1, 22] was “B (80%< substrate protein remaining %≤ 100%)”, the “IKZF 1 substrate protein remaining %” value [2, 22] was “B (80%< substrate protein remaining %≤ 100%)” and the “IKZF2 substrate protein remaining %” value [3, 22] was “B (80%< substrate protein remaining %≤ 100%)”. The “IKZF3 substrate protein remaining %” value [4, 22] was “A (0% ≤ substrate protein remaining % ≤ 80%)”, the “Wee1 substrate protein remaining %” value [5, 22] was “A (0% ≤ substrate protein remaining % ≤ 80%)” and the “GSPT1 substrate protein remaining %” value [6, 22] was “A (0% ≤ substrate protein remaining % ≤ 80%)”. It also gave an inhibition at 0.5 µM [7] of 53 to 60%, an inhibition at 2 µM [7] of 80 to 100% and an inhibition at 0.01 µM [12] of 10 to 20%. It also gave an inhibition at 0.5 µM [12] of 80 to 100%, an inhibition at 0.01 µM [13] of 10 to 20% and an inhibition at 0.5 µM [13] of 80 to 100%. It also gave an inhibition at 0.01 µM [14] of 20 to 30% and an inhibition at 0.5 µM [14] of 60 to 70%.

In the case of `O=C1CCC(N2Cc3cc(CN4CC=C(c5ccco5)CC4)ccc3C2=S)C(=O)N1` (stereo not drawn) [GT-05147, 3-(5-((4-(furan-2-yl)-3,6-dihydropyridin-1(2H)-yl)methyl)-1-thioxoisoindolin-2-yl)piperidine-2,6-dione], the “CK1α substrate protein remaining %” value [1, 21] is reported as “B (80%< substrate protein remaining %≤ 100%)”, the “IKZF 1 substrate protein remaining %” value [2, 21] is reported as “A (0% ≤ substrate protein remaining % ≤ 80%)” and the “IKZF2 substrate protein remaining %” value [3, 21] is reported as “A (0% ≤ substrate protein remaining % ≤ 80%)”. The “IKZF3 substrate protein remaining %” value [4, 21] was “A (0% ≤ substrate protein remaining % ≤ 80%)”, the “Wee1 substrate protein remaining %” value [5, 21] was “A (0% ≤ substrate protein remaining % ≤ 80%)” and the “GSPT1 substrate protein remaining %” value [6, 21] was “A (0% ≤ substrate protein remaining % ≤ 80%)”. The IC50 [7] was less than 100 nM, the IC50 [8] was 10 to 50 nM and the IC50 [9] was 100 to 500 nM. It also gave an IC50 [16] of 100 to 500 nM.

For `Nc1cccc2c1CN(C1CCC(=O)NC1=O)C2=O` (stereo not drawn) [lenalidomide, reference compound], the inhibition at 0.01 µM [8] was 10 to 20%, the inhibition at 0.5 µM [8] was 30 to 40% and the inhibition at 0.5 µM [15] was 10 to 20%. For the same molecule, the inhibition at 0.01 µM [17, 23] was 0 to 5%, the inhibition at 0.5 µM [17, 24] was 0 to 5% and the inhibition at 0.01 µM [18, 23] was 10 to 18%. It also gave an inhibition at 0.5 µM [18, 24] of 10 to 18%, an inhibition at 0.01 µM [11] of 0 to 5% and an inhibition at 0.01 µM [19, 23] of 10 to 20%. It also gave an inhibition at 0.5 µM [19, 24] of 10 to 20%, an inhibition at 0.01 µM [20, 23] of 5 to 10% and an inhibition at 0.5 µM [20, 24] of 0 to 5%. It also gave an inhibition at 0.01 µM [9, 23] of 20 to 30%, an inhibition at 0.5 µM [9, 24] of 10 to 20% and an inhibition at 0.01 µM [12] of 0 to 5%. The inhibition at 0.5 µM [12] was 5 to 10%, the inhibition at 0.01 µM [13] was 5 to 10% and the inhibition at 0.5 µM [13] was 5 to 10%. For the same molecule, the inhibition at 0.01 µM [14] was 5 to 10% and the inhibition at 0.5 µM [14] was 5 to 10%.
